Measured values taken from PubChem BioAssay AID1963983 (Molecular Pharmacology Branch, DTP, NCI, 2024).

Test system: 186277-243-T-J2-PDC multi-cell spheroid viability
Assay: Anticancer human tumor 186277-243-T-J2-PDC patient-derived colon adenocarcinoma cell line growth inhibition [PI3K]
Conditions: for IC50: curve of first compound; for viability, T/C: stronger effect = lower value
Source text: Combinatorial screen of targeted agents with the PI3K inhibitors inavolisib, alpelisib, duvelisib, and copanlisib in multi-cell type tumor spheroids
A high-throughput screen of multi-cell type tumor spheroids was designed to identify active combinations of targeted small molecules and PI3K pathway inhibitors. Complex spheroids include a stromal component modeled by human endothelial cells (HUVEC) and fibroblasts modeled by human mesenchymal stem cells (MSCs). The concentration ranges selected for each drug and investigational agent were based upon clinically achievable concentrations if the clinical Cmax of the agent was known.
Compounds. The drugs and investigational agents: inavolisib (NSC800729), alpelisib (NSC765974), duvelisib (NSC772469), copanlisib (NSC816437), ipatasertib (NSC767898), afuresertib (NSC778305), talazoparib (NSC767125), sapanisertib (NSC764658), selumetinib (NSC741078), tovorafenib (DAY101, NSC766906), vemurafenib (NSC761431), ravoxertinib (NSC781343), sotorasib (NSC818433), MRTX1133 (NSC 836407), abemaciclib (NSC 768073), palbociclib (NSC758247), venetoclax (NSC 766270), SY5609 (NSC837396), enzalutamide (NSC755605), and darolutamide (NSC825331), were obtained from the National Cancer Institute (NCI) Developmental Therapeutics Program Chemical Repository. The FDA-approved anticancer drug set is available from the NCI Developmental Therapeutics Program. […] The stock solutions were prepared in dimethyl sulfoxide (DMSO, Sigma-Aldrich, St. Louis, MO, cat. D2650) at 800-fold the tested concentration and stored at -70 degrees C prior to their use. All drugs and investigational agents were tested over a range starting from a high concentration at or near the clinical Cmax and decreasing in half-log increments. If the clinical Cmax for an agent had not been determined, the highest concentration tested was 10 microM.
Cell Culture. All cells were maintained in an incubator at 37 degrees C and 5% CO2 with 95% humidity. The PDC lines were cultured according to standard operating procedures established by the NCI PDMR (https://pdmr.cancer.gov/sops/default.htm). All PDCs were thawed and cultured in Matrigel-coated flasks prepared with a working solution of 1X Ham's F-12 nutrient mix, without supplementation (Invitrogen, Waltham, MA, cat. 11765054), 100 U/mL penicillin-streptomycin (Invitrogen, cat. 15140122), and 2.5% Matrigel (Corning Inc., Corning, NY, cat. 354248) for the first three passages. The 354836-022-R-J1-PDC, 475296-252-R-J1-PDC, and 997726-040-R-J2-PDC lines were cultured in 6A media, which includes advanced DMEM/F-12 (Thermo Fisher Scientific, cat. 12634028), 10 mM HEPES (Thermo Fisher Scientific, cat. 15630080), 1X GlutaMAX supplement (Thermo Fisher Scientific, cat. 35050061), 0.1 mg/mL primocin (InvivoGen, San Diego, CA, cat. ant-pm-2), 10% defined fetal bovine serum, heat inactivated (HyClone Laboratories Inc., Logan, UT, cat. SH30070.03HI), 50% L-WRN conditioned media (ATCC, cat. CRL-3276), 1.25 mM N-Acetyl-L-cysteine (Sigma-Aldrich, cat. A9165), 10 mM nicotinamide (Sigma-Aldrich, cat. N0636), 1X B-27 supplement (Thermo Fisher Scientific, cat. 17504044), 1X N-2 supplement (Thermo Fisher Scientific, cat. 17502048), and 10 microM Y-27632 dihydrochloride (Tocris Bioscience, Bristol, United Kingdom, cat. 1254). The 624824-186-R-J2-PDC line was cultured in 6C/Colon 1B media, which includes all 6A media components plus 50 ng/mL human EGF recombinant protein (Thermo Fisher Scientific, cat. PHG0311). […]

[1] = second compound 0.00316 µM, first compound 0.0316 µM
[2] = second compound 0.00316 µM, first compound 0.1 µM
[3] = second compound 0.00316 µM, first compound 0.316 µM
[4] = second compound 0.00316 µM, first compound 1 µM
[5] = second compound 0.00316 µM, first compound 3.16 µM
[6] = second compound 0.00316 µM, first compound 10 µM
[7] = second compound 0.01 µM, first compound 0.0316 µM
[8] = second compound 0.01 µM, first compound 0.1 µM
[9] = second compound 0.01 µM, first compound 0.316 µM
[10] = second compound 0.01 µM, first compound 1 µM
[11] = second compound 0.01 µM, first compound 3.16 µM
[12] = second compound 0.01 µM, first compound 10 µM
[13] = second compound 0.0316 µM, first compound 0.0316 µM
[14] = second compound 0.0316 µM, first compound 0.1 µM
[15] = second compound 0.0316 µM, first compound 0.316 µM
[16] = second compound 0.0316 µM, first compound 1 µM
[17] = second compound 0.0316 µM, first compound 3.16 µM
[18] = second compound 0.0316 µM, first compound 10 µM
[19] = second compound 0.1 µM, first compound 0.0316 µM
[20] = second compound 0.1 µM, first compound 0.1 µM
[21] = second compound 0.1 µM, first compound 0.316 µM
[22] = second compound 0.1 µM, first compound 1 µM
[23] = second compound 0.1 µM, first compound 3.16 µM
[24] = second compound 0.1 µM, first compound 10 µM
[25] = second compound 0.316 µM, first compound 0.0316 µM
[26] = second compound 0.316 µM, first compound 0.1 µM
[27] = second compound 0.316 µM, first compound 0.316 µM
[28] = second compound 0.316 µM, first compound 1 µM
[29] = second compound 0.316 µM, first compound 3.16 µM
[30] = second compound 0.316 µM, first compound 10 µM
[31] = second compound 1 µM, first compound 0.0316 µM
[32] = second compound 1 µM, first compound 0.1 µM
[33] = second compound 1 µM, first compound 0.316 µM
[34] = second compound 1 µM, first compound 1 µM
[35] = second compound 1 µM, first compound 3.16 µM
[36] = second compound 1 µM, first compound 10 µM
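Also: spheroids exposed to compounds for seven days before viability reading.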
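For viability, T/C in this document: 100% = DMSO vehicle control viability.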

## CC1(C)CCC(CN2CCN(c3ccc(C(=O)NS(=O)(=O)c4ccc(NCC5CCOCC5)c([N+](=O)[O-])c4)c(Oc4cnc5[nH]ccc5c4)c3)CC2)=C(c2ccc(Cl)cc2)C1 + CC(Nc1ccc2c(c1)OCCn1cc(N3C(=O)OCC3C(F)F)nc1-2)C(N)=O
Second compound 0.00316 µM
  IC50: 4.58 µM
Second compound 0.01 µM
  IC50: 4.54 µM
Second compound 0.0316 µM
  IC50: 4.36 µM
Second compound 0.1 µM
  IC50: 3.65 µM
Second compound 0.316 µM
  IC50: 3.38 µM
Second compound 1 µM
  IC50: < 0.0316 µM
[1]
  viability, T/C: 97.8%
[2]
  viability, T/C: 99.7%
[3]
  viability, T/C: 95.3%
[4]
  viability, T/C: 91.9%
[5]
  viability, T/C: 71.2%
[6]
  viability, T/C: 5.92%
[7]
  viability, T/C: 107%
[8]
  viability, T/C: 94.3%
[9]
  viability, T/C: 95.1%
[10]
  viability, T/C: 95.3%
[11]
  viability, T/C: 71.1%
[12]
  viability, T/C: 3.55%
[13]
  viability, T/C: 106%
[14]
  viability, T/C: 108%
[15]
  viability, T/C: 99.4%
[16]
  viability, T/C: 89.4%
[17]
  viability, T/C: 71%
[18]
  viability, T/C: 2.8%
[19]
  viability, T/C: 98.6%
[20]
  viability, T/C: 99.9%
[21]
  viability, T/C: 87.5%
[22]
  viability, T/C: 78.3%
[23]
  viability, T/C: 60.3%
[24]
  viability, T/C: 2.37%
[25]
  viability, T/C: 86.1%
[26]
  viability, T/C: 83.3%
[27]
  viability, T/C: 67.5%
[28]
  viability, T/C: 71.1%
[29]
  viability, T/C: 56.2%
[30]
  viability, T/C: 0.63%
[31]
  viability, T/C: 47.5%
[32]
  viability, T/C: 44.8%
[33]
  viability, T/C: 46.3%
[34]
  viability, T/C: 46.1%
[35]
  viability, T/C: 34.4%
[36]
  viability, T/C: 0.99%

## C[C@@H](NC(=O)c1ncnc(N)c1Cl)c1ncc(C(=O)Nc2cc(C(F)(F)F)c(Cl)cn2)s1 + CC(Nc1ccc2c(c1)OCCn1cc(N3C(=O)OCC3C(F)F)nc1-2)C(N)=O
Second compound 0.00316 µM
  IC50: > 10 µM
Second compound 0.01 µM
  IC50: > 10 µM
Second compound 0.0316 µM
  IC50: > 10 µM
Second compound 0.1 µM
  IC50: 5.93 µM
Second compound 0.316 µM
  IC50: 1.85 µM
Second compound 1 µM
  IC50: 0.344 µM
[1]
  viability, T/C: 83.2%
[2]
  viability, T/C: 87.1%
[3]
  viability, T/C: 93%
[4]
  viability, T/C: 99.1%
[5]
  viability, T/C: 113%
[6]
  viability, T/C: 75.8%
[7]
  viability, T/C: 103%
[8]
  viability, T/C: 101%
[9]
  viability, T/C: 96.2%
[10]
  viability, T/C: 102%
[11]
  viability, T/C: 108%
[12]
  viability, T/C: 72.4%
[13]
  viability, T/C: 98.6%
[14]
  viability, T/C: 107%
[15]
  viability, T/C: 101%
[16]
  viability, T/C: 104%
[17]
  viability, T/C: 93.7%
[18]
  viability, T/C: 56.1%
[19]
  viability, T/C: 97.4%
[20]
  viability, T/C: 105%
[21]
  viability, T/C: 96.4%
[22]
  viability, T/C: 108%
[23]
  viability, T/C: 72.8%
[24]
  viability, T/C: 31.1%
[25]
  viability, T/C: 85.9%
[26]
  viability, T/C: 92.4%
[27]
  viability, T/C: 87.3%
[28]
  viability, T/C: 67.5%
[29]
  viability, T/C: 34.4%
[30]
  viability, T/C: 12.8%
[31]
  viability, T/C: 56.2%
[32]
  viability, T/C: 54.4%
[33]
  viability, T/C: 51.4%
[34]
  viability, T/C: 35.8%
[35]
  viability, T/C: 13.7%
[36]
  viability, T/C: 4.09%

## Cn1ncnc1[C@H]1c2n[nH]c(=O)c3cc(F)cc(c23)N[C@@H]1c1ccc(F)cc1 + CC(Nc1ccc2c(c1)OCCn1cc(N3C(=O)OCC3C(F)F)nc1-2)C(N)=O
Second compound 0.00316 µM
  IC50: > 0.1 µM
Second compound 0.01 µM
  IC50: > 0.1 µM
Second compound 0.0316 µM
  IC50: > 0.1 µM
Second compound 0.1 µM
  IC50: > 0.1 µM
Second compound 0.316 µM
  IC50: 0.0468 µM
Second compound 1 µM
  IC50: 0.000592 µM
Second compound 0.00316 µM, first compound 0.000316 µM
  viability, T/C: 93.7%
Second compound 0.00316 µM, first compound 0.001 µM
  viability, T/C: 85.8%
Second compound 0.00316 µM, first compound 0.00316 µM
  viability, T/C: 105%
Second compound 0.00316 µM, first compound 0.01 µM
  viability, T/C: 91%
[1]
  viability, T/C: 101%
[2]
  viability, T/C: 94.9%
Second compound 0.01 µM, first compound 0.000316 µM
  viability, T/C: 101%
Second compound 0.01 µM, first compound 0.001 µM
  viability, T/C: 102%
Second compound 0.01 µM, first compound 0.00316 µM
  viability, T/C: 104%
Second compound 0.01 µM, first compound 0.01 µM
  viability, T/C: 102%
[7]
  viability, T/C: 102%
[8]
  viability, T/C: 98.6%
Second compound 0.0316 µM, first compound 0.000316 µM
  viability, T/C: 117%
Second compound 0.0316 µM, first compound 0.001 µM
  viability, T/C: 107%
Second compound 0.0316 µM, first compound 0.00316 µM
  viability, T/C: 101%
Second compound 0.0316 µM, first compound 0.01 µM
  viability, T/C: 97.9%
[13]
  viability, T/C: 101%
[14]
  viability, T/C: 89%
Second compound 0.1 µM, first compound 0.000316 µM
  viability, T/C: 102%
Second compound 0.1 µM, first compound 0.001 µM
  viability, T/C: 105%
Second compound 0.1 µM, first compound 0.00316 µM
  viability, T/C: 112%
Second compound 0.1 µM, first compound 0.01 µM
  viability, T/C: 99.5%
[19]
  viability, T/C: 93.5%
[20]
  viability, T/C: 69.4%
Second compound 0.316 µM, first compound 0.000316 µM
  viability, T/C: 80.6%
Second compound 0.316 µM, first compound 0.001 µM
  viability, T/C: 84.4%
Second compound 0.316 µM, first compound 0.00316 µM
  viability, T/C: 65%
Second compound 0.316 µM, first compound 0.01 µM
  viability, T/C: 64.8%
[25]
  viability, T/C: 53.7%
[26]
  viability, T/C: 43.3%
Second compound 1 µM, first compound 0.000316 µM
  viability, T/C: 52.2%
Second compound 1 µM, first compound 0.001 µM
  viability, T/C: 46.6%
Second compound 1 µM, first compound 0.00316 µM
  viability, T/C: 46.9%
Second compound 1 µM, first compound 0.01 µM
  viability, T/C: 39.4%
[31]
  viability, T/C: 31.9%
[32]
  viability, T/C: 26.6%
